Data: PMC2360244 (British Journal of Cancer, 2007)
Read-outs that look alike come from different tables or passages of the source.

How the values were obtained:
HDAC1 = HDAC1 (Rattus norvegicus, UniProt Q4QQW4); type: biochemical
Description: After centrifugation, the cleared extract was used for immunoprecipitation of HDAC1. […] (Amersham Pharmacia Biotech, Piscataway, NJ, USA) in a total volume of 50 μl enzyme assay buffer (25 mM HEPES (pH 7.4), 1 M sucrose, 0.1 mg ml^−1 BSA and 0.01% (v v^−1) Triton X-100). Incubation was performed for 45 min at 37°C (immunoprecipitates) or 30 min at room temperature (HeLa nuclear extract). Before addition of substrate, HDAC inhibitors were added at increasing concentrations and preincubated for 10 min at room temperature. After incubation, the reaction was quenched with 35 μl stop buffer (1 M HCl and 0.4 M acetic acid). Released [^3H]acetic acid was extracted with 800 μl ethyl acetate and quantified by scintillation counting. Equal amounts of HDAC1 were immunoprecipitated as indicated by western blot analysis. Histone deacetylase 1 activity results are presented as mean±s.d. of three independent experiments on a single lysate. […] Finally, we measured the activities of different HDAC isotypes present in partially purified extract from rat liver using the fluorescent HDAC substrates MAL (unselective), B61 (selective for HDAC1, and to some extent also converted by HDAC3) and B12 (selective for HDAC6).

HDAC6 = target: T1, HDAC6 (Rattus norvegicus, UniProt A0A8I6GM68); assay: biochemical; type: biochemical
T1 construct: partially purified extract from rat liver; from tissue; host or cells: rat liver, partially purified extract
Description: (§1) After centrifugation, the cleared extract was used for immunoprecipitation of HDAC1. […] Incubation was performed for 45 min at 37°C (immunoprecipitates) or 30 min at room temperature (HeLa nuclear extract). Before addition of substrate, HDAC inhibitors were added at increasing concentrations and preincubated for 10 min at room temperature. After incubation, the reaction was quenched with 35 μl stop buffer (1 M HCl and 0.4 M acetic acid). Released [^3H]acetic acid was extracted with 800 μl ethyl acetate and quantified by scintillation counting. Equal amounts of HDAC1 were immunoprecipitated as indicated by western blot analysis. Histone deacetylase 1 activity results are presented as mean±s.d. of three independent experiments on a single lysate. […] Finally, we measured the activities of different HDAC isotypes present in partially purified extract from rat liver using the fluorescent HDAC substrates MAL (unselective), B61 (selective for HDAC1, and to some extent also converted by HDAC3) and B12 (selective for HDAC6).

[1] = system: A2780 ovarian carcinoma cells; assay: A2780 tumour cell proliferation, MTT colorimetric assay; type: cell-based, human; conditions: 4 days, mean±s.d.
Description: Control cells were treated with the combined respective vehicle.

[2] = system: H3 acetylation and p21waf1,cip1 in A2780 ovarian carcinoma cells; assay: Western blot of acetylated H3 and p21waf1,cip1 in A2780 cells (class I HDAC readout); type: cell-based, human; conditions: 24 h, western blot
Description: (§2) Human A2780 ovarian carcinoma cells were incubated with the indicated concentrations of HDAC inhibitors. Total cell lysates were prepared and analysed by SDS–PAGE. […] To control for equal loading, blots were stripped and re-probed with mouse monoclonal antiactin IgM (Ab-1, Oncogene Research products, Merck, Darmstadt, Germany). […] Protein–antibody complexes were then visualised by chemiluminescence (Pierce Chemical Co., Perbioscience, Erembodegem, Belgium) or fluorescence (Odyssey) according to manufacturer's instructions.
(§3) Total cell lysates were prepared and analysed by SDS–PAGE. Levels of acetylated H3 and tubulin, and of total levels of H3 and tubulin and of p21^waf1, cip1 and Hsp70 and c-raf protein, were detected using rabbit polyclonal and mouse monoclonal antibodies, followed by ECL detection as indicated in the Methods section. To control for equal loading, blots were stripped and re-probed with antibodies against actin and the nuclear protein Lamin B1. A representative experiment out of three is shown.

[3] = system: tubulin acetylation and Hsp70 in A2780 ovarian carcinoma cells; assay: Western blot of acetylated tubulin and Hsp70 in A2780 cells (HDAC6 readout); type: cell-based, human; conditions: for concentration at which tubulin acetylation (and Hsp70 induction) is evident: western blot
Description: as §2, §3

[4] = system: HDAC isotypes in partially purified extract from rat liver (MAL, unselective); conditions: read-out: Liver extract MAL unselective IC50, substrate MAL
Description: as §1

T1 sequence (A0A8I6GM68 whole entry): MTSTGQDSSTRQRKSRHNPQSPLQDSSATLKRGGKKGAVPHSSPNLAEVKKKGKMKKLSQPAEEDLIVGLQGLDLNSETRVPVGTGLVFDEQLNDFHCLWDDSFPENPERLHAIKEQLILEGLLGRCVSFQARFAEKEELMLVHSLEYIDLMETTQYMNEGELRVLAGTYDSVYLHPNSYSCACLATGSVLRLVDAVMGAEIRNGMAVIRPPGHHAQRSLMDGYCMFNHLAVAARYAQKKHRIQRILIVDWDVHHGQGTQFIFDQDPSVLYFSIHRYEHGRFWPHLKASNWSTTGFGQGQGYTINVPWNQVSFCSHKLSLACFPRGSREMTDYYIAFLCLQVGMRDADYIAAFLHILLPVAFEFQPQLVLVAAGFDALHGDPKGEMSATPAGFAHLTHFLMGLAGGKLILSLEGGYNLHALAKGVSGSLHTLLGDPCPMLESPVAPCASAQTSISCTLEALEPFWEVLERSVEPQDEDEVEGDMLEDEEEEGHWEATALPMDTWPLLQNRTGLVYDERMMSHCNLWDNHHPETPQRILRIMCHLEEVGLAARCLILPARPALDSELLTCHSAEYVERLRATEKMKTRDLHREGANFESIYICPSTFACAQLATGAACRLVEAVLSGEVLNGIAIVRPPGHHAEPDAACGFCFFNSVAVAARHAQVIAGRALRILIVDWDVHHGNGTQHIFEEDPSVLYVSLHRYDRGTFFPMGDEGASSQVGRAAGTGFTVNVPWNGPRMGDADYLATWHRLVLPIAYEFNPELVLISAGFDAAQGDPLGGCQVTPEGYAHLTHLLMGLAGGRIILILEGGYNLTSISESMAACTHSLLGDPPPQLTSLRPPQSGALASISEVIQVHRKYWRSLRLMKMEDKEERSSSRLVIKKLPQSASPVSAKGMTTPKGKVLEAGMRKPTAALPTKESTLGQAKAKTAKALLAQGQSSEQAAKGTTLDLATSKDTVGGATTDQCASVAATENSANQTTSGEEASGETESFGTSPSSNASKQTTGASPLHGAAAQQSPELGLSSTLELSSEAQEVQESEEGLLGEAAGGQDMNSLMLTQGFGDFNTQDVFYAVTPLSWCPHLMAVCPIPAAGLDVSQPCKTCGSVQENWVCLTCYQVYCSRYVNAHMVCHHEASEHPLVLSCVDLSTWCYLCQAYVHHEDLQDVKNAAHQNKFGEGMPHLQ
Chain of HDAC1 (Q4QQW4 whole entry): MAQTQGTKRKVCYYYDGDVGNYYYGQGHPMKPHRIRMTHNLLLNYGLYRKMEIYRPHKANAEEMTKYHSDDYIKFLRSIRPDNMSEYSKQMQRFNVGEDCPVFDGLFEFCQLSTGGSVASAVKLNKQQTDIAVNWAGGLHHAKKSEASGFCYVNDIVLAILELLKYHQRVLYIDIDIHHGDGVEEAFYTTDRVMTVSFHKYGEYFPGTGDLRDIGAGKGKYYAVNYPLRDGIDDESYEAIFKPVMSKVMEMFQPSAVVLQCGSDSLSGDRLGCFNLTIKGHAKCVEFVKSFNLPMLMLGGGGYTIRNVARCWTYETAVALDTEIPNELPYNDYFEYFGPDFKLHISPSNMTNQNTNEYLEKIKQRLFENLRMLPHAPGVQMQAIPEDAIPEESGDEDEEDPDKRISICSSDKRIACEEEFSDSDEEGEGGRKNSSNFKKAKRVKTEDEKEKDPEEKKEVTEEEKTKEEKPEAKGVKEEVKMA

| Structure (SMILES) | IC50 [1] [nM] | concentration at which H3 acetylation is induced [2] [nM] | IC50 [4] [nM] | concentration at which tubulin acetylation (and Hsp70 induction) is evident ([3]; 24 h) [nM] | other results |
| --- | --- | --- | --- | --- | --- |
| Nc1ccccc1NC(=O)c1ccc(CNC(=O)OCc2cccnc2)cc1 [MS-275] | 376 ± 169 | 3000 |  |  | Liver extract B61 HDAC1 IC50 (HDAC1; rat liver extract, substrate B61): Inactive; Liver extract B12 HDAC6 IC50 (HDAC6; rat liver extract, substrate B12): Inactive; effect on tubulin acetylation or Hsp70 levels ([3]; 3 μM, 24 h): did not affect tubulin acetylation or Hsp70 levels |
| Cc1[nH]c2ccccc2c1CCNCc1ccc(/C=C/C(=O)NO)cc1 [Panobinostat] |  | 100 | 75 ± 4 | 100 | IC50 (HDAC6): 89 ± 12 nM; substrate preference B61 (HDAC1/HDAC3) vs B12 (HDAC6) (HDAC6; rat liver HDAC preparation): equipotent activity towards both substrates; IC50 ([1]; Homo sapiens, A2780, 96 h): 4.6 ± 1.8 nM |
| CC(/C=C/C(=O)NO)=C\[C@@H](C)C(=O)c1ccc(N(C)C)cc1 [TSA, Trichostatin A] | 23 ± 8 | 300 | 12 ± 1.2 | 300 | IC50 (HDAC6; read-out: Liver extract B12 HDAC6 IC50): 20.7 ± 2.6 nM |
| O=C(CCCCCCC(=O)Nc1ccccc1)NO [Vorinostat, suberoylanilide hydroxamic acid] |  |  |  |  | IC50 (HDAC1; read-out: Liver extract B61 HDAC1 IC50): 1030 ± 201 nM; cellular potency for HDAC6 vs HDAC1 (higher for HDAC6) ([3]; tubulin acetylation vs H3 acetylation): 10 fold |
